# In patent publication US20260309717A1, “PROXIMITY INDUCING SYSTEM AND USES THEREOF” (SORBONNE UNIVERSITE, priority 2022, published 2026):
# Tests used:
# Assay type in all cases: cell-based
# [1] = target: T1, ^FIREmate and ^FIREtag (fused to FRB and FKBP) (Halorhodospira halophila, UniProt P16113, A30V/C69G/D97P/F96I, form not given/G21E/G25R/K17N/M100R/M109L/Q41L/Q99S/S72T/T101G/V83A/Y94W/Y98T); experiment: Flow cytometry of fluorescent ternary assembly formation in HEK293T cells co-expressing FKBP-^FIREtag and FRB-^FIREmate
# T1 sequence (P16113 1-114 A30V/C69G/D97P/F96I/G21E/G25R/K17N/M100R/M109L/Q41L/Q99S/S72T/T101G/V83A/Y94W/Y98T): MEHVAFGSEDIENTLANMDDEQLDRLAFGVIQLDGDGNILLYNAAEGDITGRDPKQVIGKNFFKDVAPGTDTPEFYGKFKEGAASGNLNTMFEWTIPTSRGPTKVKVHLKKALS
# Method: FIGS. 2A and 2B are graphs illustrating the fluorogen-dependent interaction between the two polypeptides ^FIREmate and ^FIREtag. The graphs show the normalized average fluorescence detected from about 50,000 HEK293T cells co-expressing the FK506-binding protein (FKBP) fused to ^FIREtag and the FKBP-rapamycin-binding domain of mammalian target of rapamycin (FRB) fused to ^FIREmate treated without (triangles) or with (squares) 500 nM of rapamycin, and with 1, 5, 10, 25 or 50 μM of HBR-2,5DM (2A) or HMBR (2B). Data represent the mean values±SD of three independent experiments.
# The formation of a fluorescent ternary assembly was assessed by flow cytometry in HEK293 cells expressing ^FIREmate and ^FIREtag fused to the C-termini of FKBP (FK506-binding protein) and FRB (FKBP-rapamycin-binding domain of mammalian target of rapamycin), […]. FKBP and FRB are able to dimerize upon addition of rapamycin. Treatment of the HEK293 cells with rapamycin is thus expected to induce the dimerization of FKBP and FRB, and subsequently to induce proximity between ^FIREtag and ^FIREmate.
# [2] = target: T2, mCherry-^FIREtag / ^FIREmate-ECFP-Cb5 (Halorhodospira halophila, UniProt P16113, A30V/C69G/D97P/F96I, form not given/G21E/G25R/K17N/M100R/M109L/Q41L/Q99S/S72T/T101G/V83A/Y94W/Y98T); experiment: Recruitment of cytoplasmic protein to the endoplasmic reticulum, HeLa cells; details: 10 μM
# T2 construct: FIREmate-ECFP-Cb5(100-134) and mCherry-FIREtag in HeLa cells
# T2 sequence (P16113 1-114 A30V/C69G/D97P/F96I/G21E/G25R/K17N/M100R/M109L/Q41L/Q99S/S72T/T101G/V83A/Y94W/Y98T): T1 sequence (P16113 1-114 A30V/C69G/D97P/F96I/G21E/G25R/K17N/M100R/M109L/Q41L/Q99S/S72T/T101G/V83A/Y94W/Y98T)
# Method: FIGS. 7A-E illustrate the recruitment of cytoplasmic proteins to the endoplasmic reticulum with the proximity inducing system described herein. FIG. 7A is a representation of the experimental design wherein HeLa cells co-expressing mCherry-^FIREtag and ^FIREmate-ECFP-Cb5 were treated with 10 μM of match (either HBR-2,5DM or HMBR), and imaged by time-lapse confocal microscopy. FIGS. 7B-C are graphs showing the temporal evolution of the FIRE signal detected upon addition at 0 min of HBR-2,5DM (match1-7C) or HMBR (match2-7D). Data represents the mean values±SD of 17 cells from n=3 independent experiments (7B, D), or of 18 cells from n=3 independent experiments (7C, E). FIGS. 7D-E are sets of representative confocal micrographs of cells before (0 min) and after (5 min) addition of HBR-2,5DM (match1-7D) or HMBR (match2-7E) (mCherry: ex/em 561/606-675 nm; FIRE: ex/em 488/508-570 nm; ECFP: ex/em 445/455-499 nm). […] Scale bars are 20 μm.
# The confocal micrographs were acquired on a Zeiss LSM 980 Laser Scanning Microscope equipped with a plan apochromat 63x/1.4 NA oil immersion objective. ZEN software was used to collect the data. The images were analyzed using Icy (2.4.0.0) and Fiji (Image J). In short, to track fluorescence signal in a specific organelle, a ROI (region of interest) was determined by masking the signal in the ECFP (Enhanced Cyan Fluorescent Protein) channel with the plug-in HK-means with the following parameters: intensity class equals 100, minimum object size (pixels or px) equals 500, maximum object size (px) equals 1500-3000. The signal intensity of the ROI was tracked over time for each channel by using plug-in Active Contours. The background signal was subtracted. Data were processed using GraphPad Prism v9.3.0.
# To further evaluate the scope of the proximity inducing system described herein and show its versatility, ^FIREmate was anchored at the membrane of various organelles or cellular structures so that ^FIREmate faced the cytosol. ^FIREmate was thus fused: • to the N-terminus of the transmembrane domain (amino acid residues at positions 3131-3259) of Giantin for location at the cis-medial rims of the Golgi apparatus (FIG. 6A), • to the N-terminus of the transmembrane domain (amino acid residues at positions 100-134) of the cytochrome b5 (Cb5) for location at the endoplasmic reticulum membrane (FIG. 7A), and • to the C-terminus of the Lyn11 inner membrane targeting sequence for location at the plasma membrane (FIG. 8A).
# For each construct, an ECFP was inserted between ^FIREmate and the other protein domain/sequence to monitor the localization of the resulting fusion protein (blue fluorescence). Each fusion protein was co-expressed in mammalian cells (HeLa cells or HEK293 cells as indicated) together with mCherry-^FIREtag (red fluorescence). […]
# [3] = target: T3, FKBP-caged^FIREtag / FRB-^FIREmate (Halorhodospira halophila, UniProt P16113, A30V/C69G/D97P/F96I, form not given/G21E/G25R/K17N/M100R/M109L/Q41L/Q99S/S72T/T101G/V83A/Y94W/Y98T); experiment: Flow cytometry of ternary assembly formation with caged^FIREtag, HEK293T cells
# T3 construct: FKBP-caged FIREtag (PYP 2-114 C69G cage) and FRB-FIREmate co-expressed in HEK293T cells
# T3 sequence (P16113 1-114 A30V/C69G/D97P/F96I/G21E/G25R/K17N/M100R/M109L/Q41L/Q99S/S72T/T101G/V83A/Y94W/Y98T): T1 sequence (P16113 1-114 A30V/C69G/D97P/F96I/G21E/G25R/K17N/M100R/M109L/Q41L/Q99S/S72T/T101G/V83A/Y94W/Y98T)
# Text: FIG. 10 is a graph illustrating the fluorogen-dependent interaction between caged ^FIREtag and ^FIREmate. […] Data represent the mean values±SD of 3 independent experiments.
# Although, as indicated above, no self-complementation between ^FIREtag and ^FIREmate could be observed in the absence of fluorogen (see FIG. 3), a caged FIREt was designed to prevent any interaction with ^FIREmate in the absence of fluorogen, even at high expression levels. To cage ^FIREtag, the N-terminal domain 2-114 of Halorhodospira halophila photoactive yellow protein (PYP) C69G (corresponding to SEQ ID NO: 21) was fused to ^FIREtag. The intramolecular interaction between ^FIREtag and the N-terminal domain 2-114 of H. halophila PYP C69G induces the folding of the caged^FIREtag protein, thus preventing any intermolecular interaction of the caged^FIREtag with ^FIREmate. The fusion proteins FKBP-caged^FIREtag and FRB-^FIREmate were co-expressed in HEK293T cells. The cells were then treated with the fluorogens HBR-2,5DM at various concentrations (1, 5, 10, 25 or 50 μM as indicated), in the presence or absence of rapamycin.
compound,measurement,setting,value
"Cc1cc(/C=C2\SC(=S)NC2=O)c(C)cc1O [HBR-2,5DM, (Z)-5-(4-hydroxy-2,5-dimethylbenzylidene)-2-thioxo-1,3-thiazolidin-4-one]",dimerization of FKBP and FRB (induced proximity),[1]; absence of rapamycin,able to induce the dimerization of FKBP and FRB
same,formation of a ternary fluorescent assembly,"[1]; fluorogen 1, 5, 10, 25 or 50 μM, HEK293 cells",induced the formation of a ternary fluorescent assembly at all tested fluorogen concentrations
same,dependence of ternary fluorescent assembly formation on rapamycin (initial proximity),"[1]; with or without 500 nM rapamycin, fluorogen 1-50 μM",regardless of the presence or absence of rapamycin
same,FIRE signal at the endoplasmic reticulum,[2],simultaneous appearance of green fluorescence
same,translocation of mCherry-^FIREtag to the endoplasmic reticulum,[2],rapid translocation of mCherry-^FIREtag to the organelle
same,formation of fluorescent ternary assembly with caged^FIREtag and ^FIREmate,"[3]; 1, 5, 10, 25 or 50 μM, even in absence of rapamycin",could still form a fluorescent ternary assembly
same,concentration required to reach full ternary assembly with caged^FIREtag,[3]; absence of rapamycin,"higher concentrations of HBR-2,5DM were required to reach full ternary assembly in absence of rapamycin"
